{"source": "paper PMC4648113", "about": "(Acta Pharmacologica Sinica, 2015)", "key": {"[1]": {"biological_target": "native α7 nAChR in hippocampal neurons (Rattus norvegicus, UniProt Q05941)", "sequence (Q05941 23-502)": "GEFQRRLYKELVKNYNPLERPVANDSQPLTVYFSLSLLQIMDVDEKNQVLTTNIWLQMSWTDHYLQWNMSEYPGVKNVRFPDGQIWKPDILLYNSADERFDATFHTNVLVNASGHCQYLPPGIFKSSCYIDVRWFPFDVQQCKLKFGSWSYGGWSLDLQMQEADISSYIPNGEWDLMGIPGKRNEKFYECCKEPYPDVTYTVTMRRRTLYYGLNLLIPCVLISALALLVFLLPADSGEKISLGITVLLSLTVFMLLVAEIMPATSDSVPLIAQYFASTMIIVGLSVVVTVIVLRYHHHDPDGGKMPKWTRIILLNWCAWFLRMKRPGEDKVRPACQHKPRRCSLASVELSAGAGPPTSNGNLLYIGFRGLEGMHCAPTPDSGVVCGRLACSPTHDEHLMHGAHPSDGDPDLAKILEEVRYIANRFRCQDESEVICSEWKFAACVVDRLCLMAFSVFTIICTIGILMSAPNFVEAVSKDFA", "assay_type": "cell-based"}, "[2]": {"system": "CA1 hippocampal pyramidal neurons", "test": "Spontaneous IPSC recordings in hippocampal brain slices", "assay_type": "cell-based, rat"}, "[3]": {"system": "ERK1/2 phosphorylation in PC12 cells", "test": "Western blot of ERK1/2 phosphorylation in PC12 cells", "assay_type": "cell-based, rat", "details": "pre-incubation 10 min"}, "human α7 nAChR [4]": {"biological_target": "T1, human α7 nAChR (Homo sapiens, UniProt P36544)", "T1 sequence (P36544 23-502)": "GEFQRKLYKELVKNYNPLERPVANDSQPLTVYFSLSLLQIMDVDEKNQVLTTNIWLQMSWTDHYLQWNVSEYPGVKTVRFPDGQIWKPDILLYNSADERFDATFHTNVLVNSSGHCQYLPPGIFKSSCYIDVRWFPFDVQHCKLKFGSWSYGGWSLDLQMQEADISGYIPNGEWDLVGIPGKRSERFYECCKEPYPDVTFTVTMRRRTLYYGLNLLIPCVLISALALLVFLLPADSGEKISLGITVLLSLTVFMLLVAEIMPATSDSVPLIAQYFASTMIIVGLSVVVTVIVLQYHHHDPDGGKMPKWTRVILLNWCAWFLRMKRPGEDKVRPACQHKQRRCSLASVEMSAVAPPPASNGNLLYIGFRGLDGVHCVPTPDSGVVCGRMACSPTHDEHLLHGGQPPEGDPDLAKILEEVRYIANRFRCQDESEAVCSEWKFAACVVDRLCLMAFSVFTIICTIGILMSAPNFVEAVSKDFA", "test": "Two-electrode voltage clamp", "assay_type": "cell-based", "details": "for Concentration needed to reach 30% of the response of ACh: oocyte assay; for Maximal response vs 3 mmol/L ACh: peak current normalized to 3 mmol/L ACh"}, "human α7 nAChR [5]": {"biological_target": "T1, human α7 nAChR", "test": "TEVC, inhibition", "assay_type": "cell-based"}, "[6]": {"biological_target": "human α1β3γ2 GABAA receptor (Homo sapiens, UniProt P14867+P18507+P28472)", "test": "TEVC in Xenopus oocytes, GABAA α1β3γ2", "assay_type": "cell-based"}, "rat α3β4 nAChR": {"biological_target": "rat α3β4 nAChR (Rattus norvegicus, UniProt P04757+P12392)", "sequence (P04757 26-499)": "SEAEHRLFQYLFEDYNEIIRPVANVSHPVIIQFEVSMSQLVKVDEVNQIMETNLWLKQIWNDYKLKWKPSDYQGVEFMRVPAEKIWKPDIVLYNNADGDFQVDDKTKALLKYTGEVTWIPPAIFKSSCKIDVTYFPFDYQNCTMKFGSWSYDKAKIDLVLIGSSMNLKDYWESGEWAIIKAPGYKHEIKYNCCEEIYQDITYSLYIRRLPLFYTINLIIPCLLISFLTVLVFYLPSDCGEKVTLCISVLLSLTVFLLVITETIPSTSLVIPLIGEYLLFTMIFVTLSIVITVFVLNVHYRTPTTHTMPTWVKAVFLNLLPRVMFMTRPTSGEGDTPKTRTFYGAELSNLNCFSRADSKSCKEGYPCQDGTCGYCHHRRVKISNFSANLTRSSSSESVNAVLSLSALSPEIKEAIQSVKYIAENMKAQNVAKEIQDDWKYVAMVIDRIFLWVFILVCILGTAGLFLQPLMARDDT", "sequence (P12392 21-495)": "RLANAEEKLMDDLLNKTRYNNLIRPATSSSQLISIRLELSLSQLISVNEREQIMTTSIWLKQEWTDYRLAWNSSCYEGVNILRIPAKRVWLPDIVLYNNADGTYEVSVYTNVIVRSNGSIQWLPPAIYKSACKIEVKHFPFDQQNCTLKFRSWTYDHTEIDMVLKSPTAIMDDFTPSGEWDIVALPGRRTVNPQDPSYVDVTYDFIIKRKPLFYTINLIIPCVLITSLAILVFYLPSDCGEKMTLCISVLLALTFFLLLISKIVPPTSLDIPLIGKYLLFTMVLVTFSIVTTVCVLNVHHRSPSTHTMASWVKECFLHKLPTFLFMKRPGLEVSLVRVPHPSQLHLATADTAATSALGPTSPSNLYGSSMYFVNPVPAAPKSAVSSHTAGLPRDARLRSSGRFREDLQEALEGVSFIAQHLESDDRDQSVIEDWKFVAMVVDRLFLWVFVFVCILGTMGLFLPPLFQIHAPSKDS", "test": "TEVC in Xenopus oocytes, selectivity on α3β4", "assay_type": "cell-based"}, "[7]": {"biological_target": "human α2β3γ2 GABAA receptor (Homo sapiens, UniProt P18507+P28472+P47869)", "test": "TEVC in Xenopus oocytes, GABAA α2β3γ2", "assay_type": "cell-based"}, "human 5-HT3A receptor": {"biological_target": "T2, human 5-HT3A receptor (Homo sapiens, UniProt P46098)", "T2 sequence (P46098 24-478)": "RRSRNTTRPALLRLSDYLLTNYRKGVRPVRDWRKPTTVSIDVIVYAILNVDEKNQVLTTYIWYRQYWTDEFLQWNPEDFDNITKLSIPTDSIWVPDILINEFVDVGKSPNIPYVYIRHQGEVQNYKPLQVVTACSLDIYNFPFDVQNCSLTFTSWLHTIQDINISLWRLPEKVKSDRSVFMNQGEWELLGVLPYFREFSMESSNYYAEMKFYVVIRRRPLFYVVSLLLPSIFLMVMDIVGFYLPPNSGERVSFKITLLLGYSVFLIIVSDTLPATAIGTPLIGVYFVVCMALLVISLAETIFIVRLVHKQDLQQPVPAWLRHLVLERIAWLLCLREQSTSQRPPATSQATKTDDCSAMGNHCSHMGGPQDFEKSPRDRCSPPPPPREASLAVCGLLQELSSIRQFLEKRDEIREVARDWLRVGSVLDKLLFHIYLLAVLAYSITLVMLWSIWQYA", "test": "TEVC in Xenopus oocytes, selectivity on 5-HT3A", "assay_type": "cell-based"}, "rat α4β2 nAChR": {"biological_target": "rat α4β2 nAChR (Rattus norvegicus, UniProt P09483+P12390)", "sequence (P09483 31-630)": "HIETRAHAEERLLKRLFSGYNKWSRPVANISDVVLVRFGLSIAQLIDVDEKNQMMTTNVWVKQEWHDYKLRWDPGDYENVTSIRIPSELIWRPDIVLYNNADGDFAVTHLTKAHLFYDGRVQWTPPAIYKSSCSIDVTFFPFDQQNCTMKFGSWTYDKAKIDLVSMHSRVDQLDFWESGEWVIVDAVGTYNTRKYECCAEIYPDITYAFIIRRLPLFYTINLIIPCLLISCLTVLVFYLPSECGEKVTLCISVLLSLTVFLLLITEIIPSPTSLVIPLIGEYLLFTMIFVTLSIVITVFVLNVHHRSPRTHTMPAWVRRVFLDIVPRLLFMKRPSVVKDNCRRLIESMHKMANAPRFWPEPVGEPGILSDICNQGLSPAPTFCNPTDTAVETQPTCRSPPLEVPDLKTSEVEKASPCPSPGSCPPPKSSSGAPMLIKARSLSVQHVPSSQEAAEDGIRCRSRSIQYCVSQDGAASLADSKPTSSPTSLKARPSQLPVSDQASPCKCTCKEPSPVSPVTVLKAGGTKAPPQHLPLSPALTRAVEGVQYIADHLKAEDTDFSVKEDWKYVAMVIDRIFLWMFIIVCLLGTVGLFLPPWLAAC", "sequence (P12390 25-500)": "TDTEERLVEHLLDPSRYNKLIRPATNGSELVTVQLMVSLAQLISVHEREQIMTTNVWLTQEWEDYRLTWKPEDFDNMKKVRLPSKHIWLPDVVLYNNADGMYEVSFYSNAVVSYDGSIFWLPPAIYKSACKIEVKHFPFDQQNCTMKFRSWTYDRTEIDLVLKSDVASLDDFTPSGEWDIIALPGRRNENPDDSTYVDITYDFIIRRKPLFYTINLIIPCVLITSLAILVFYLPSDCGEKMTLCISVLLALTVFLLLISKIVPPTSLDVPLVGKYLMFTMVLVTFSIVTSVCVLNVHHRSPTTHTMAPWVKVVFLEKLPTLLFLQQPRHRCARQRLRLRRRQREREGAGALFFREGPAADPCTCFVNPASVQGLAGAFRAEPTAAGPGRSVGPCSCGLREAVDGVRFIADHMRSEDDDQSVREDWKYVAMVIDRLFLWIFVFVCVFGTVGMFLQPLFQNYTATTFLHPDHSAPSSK", "test": "TEVC in Xenopus oocytes, selectivity on α4β2", "assay_type": "cell-based"}, "[8]": {"biological_target": "human α5β3γ2 GABAA receptor (Homo sapiens, UniProt P18507+P28472+P31644)", "sequence (P31644 32-462)": "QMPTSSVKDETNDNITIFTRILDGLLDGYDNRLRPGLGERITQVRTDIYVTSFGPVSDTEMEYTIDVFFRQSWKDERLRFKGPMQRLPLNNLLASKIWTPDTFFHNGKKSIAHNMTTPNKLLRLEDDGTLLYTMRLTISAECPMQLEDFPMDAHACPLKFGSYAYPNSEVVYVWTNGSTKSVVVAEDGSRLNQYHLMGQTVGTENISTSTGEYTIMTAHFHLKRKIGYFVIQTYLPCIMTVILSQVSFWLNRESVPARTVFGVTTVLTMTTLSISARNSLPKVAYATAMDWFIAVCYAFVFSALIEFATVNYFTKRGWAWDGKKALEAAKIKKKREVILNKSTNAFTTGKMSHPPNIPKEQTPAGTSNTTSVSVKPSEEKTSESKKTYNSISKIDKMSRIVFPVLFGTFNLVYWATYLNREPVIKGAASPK", "sequence (P28472 26-473)": "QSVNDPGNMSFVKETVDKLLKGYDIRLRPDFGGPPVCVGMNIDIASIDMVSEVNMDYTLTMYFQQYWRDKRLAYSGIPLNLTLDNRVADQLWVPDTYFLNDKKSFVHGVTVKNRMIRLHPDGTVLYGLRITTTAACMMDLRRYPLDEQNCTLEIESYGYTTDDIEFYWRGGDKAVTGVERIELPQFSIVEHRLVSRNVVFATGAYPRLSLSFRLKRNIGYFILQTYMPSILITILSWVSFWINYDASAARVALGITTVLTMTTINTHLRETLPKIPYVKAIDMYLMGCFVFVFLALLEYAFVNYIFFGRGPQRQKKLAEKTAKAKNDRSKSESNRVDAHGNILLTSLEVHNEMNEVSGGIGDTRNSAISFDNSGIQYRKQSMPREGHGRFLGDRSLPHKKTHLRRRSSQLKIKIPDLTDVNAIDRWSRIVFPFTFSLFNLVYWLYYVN", "sequence (P18507 40-475)": "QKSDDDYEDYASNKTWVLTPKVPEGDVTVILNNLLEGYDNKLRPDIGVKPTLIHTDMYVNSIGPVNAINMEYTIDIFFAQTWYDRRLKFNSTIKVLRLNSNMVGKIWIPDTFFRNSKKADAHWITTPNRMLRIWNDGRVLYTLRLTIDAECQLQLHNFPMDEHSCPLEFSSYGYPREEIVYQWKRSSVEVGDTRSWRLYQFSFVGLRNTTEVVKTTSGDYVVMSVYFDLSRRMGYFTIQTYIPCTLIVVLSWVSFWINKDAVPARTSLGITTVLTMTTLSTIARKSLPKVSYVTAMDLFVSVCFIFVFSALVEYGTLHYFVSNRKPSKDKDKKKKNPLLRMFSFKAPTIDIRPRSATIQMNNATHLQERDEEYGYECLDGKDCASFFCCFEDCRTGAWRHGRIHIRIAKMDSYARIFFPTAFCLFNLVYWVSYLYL", "test": "TEVC in Xenopus oocytes, GABAA α5β3γ2", "assay_type": "cell-based"}, "[9]": {"biological_target": "human α3β3γ2 GABAA receptor (Homo sapiens, UniProt P18507+P28472+P34903)", "sequence (P34903 29-492)": "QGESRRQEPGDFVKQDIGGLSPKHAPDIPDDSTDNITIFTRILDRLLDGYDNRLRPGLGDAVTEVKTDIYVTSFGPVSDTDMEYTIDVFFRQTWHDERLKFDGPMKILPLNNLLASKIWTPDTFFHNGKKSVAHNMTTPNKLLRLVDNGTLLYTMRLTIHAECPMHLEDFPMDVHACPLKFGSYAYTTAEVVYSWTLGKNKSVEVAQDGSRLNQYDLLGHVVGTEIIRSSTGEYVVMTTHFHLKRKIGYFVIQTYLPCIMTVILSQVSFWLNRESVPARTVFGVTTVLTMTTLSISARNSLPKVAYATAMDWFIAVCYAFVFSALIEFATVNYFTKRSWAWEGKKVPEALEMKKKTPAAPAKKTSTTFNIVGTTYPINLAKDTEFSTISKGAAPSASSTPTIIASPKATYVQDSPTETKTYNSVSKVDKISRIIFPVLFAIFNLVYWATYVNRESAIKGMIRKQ", "sequence (P28472 26-473)": "as the sequence (P28472 26-473) above", "sequence (P18507 40-475)": "as the sequence (P18507 40-475) above", "test": "TEVC in Xenopus oocytes, GABAA α3β3γ2", "assay_type": "cell-based"}, "α7 nAChR [10]": {"biological_target": "T3, α7 nAChR (Rattus norvegicus, UniProt Q05941)", "T3 sequence (Q05941 23-502)": "as the sequence (Q05941 23-502) above", "test": "biochemical"}, "α7 nAChR [11]": {"biological_target": "T3, α7 nAChR", "details": "Ki ratio vs ACh"}, "[12]": {"details": "100 μmol/L co-applied with 1 μmol/L GABA"}, "[13]": {"details": "100 μmol/L, pre-incubation 1 min"}, "[14]": {"details": "Br-IQ17B alone, up to 100 μmol/L"}}, "note": "Several values for one entry are separate records, joined by “and”; a condition that tells them apart may be missing. Identical values can stand only once. Entries after “also recorded” stand apart in the source; their conditions may differ."}
{"smiles": "CC(=O)OCC[N+](C)(C)C", "note": "[ACh, acetylcholine]", "values": [{"measurement": "Current evoked in hippocampal neurons", "setting": "[1]", "result": "evoked α7 currents with fast onset and rapid decay"}]}
{"smiles": "COc1cc(OC)c(NC(=O)Nc2cc(C)on2)cc1Cl", "note": "[PNU-120596]", "values": [{"measurement": "sIPSC frequency with PNU-120596 alone", "setting": "[2]; PNU-120596 1 μmol/L, 10 min, baseline 4.5±0.7 Hz", "result": "4.6±0.7", "unit": "Hz"}, {"measurement": "sIPSC amplitude with PNU-120596 alone", "setting": "[2]; PNU-120596 1 μmol/L, 10 min, baseline 30.8±6.8 pA", "result": "30.6±4.7", "unit": "pA"}, {"measurement": "Effect of PNU-120596 alone on basal pERK/tERK ratio", "setting": "[3]", "result": "slight increase"}, {"measurement": "Effect of PNU-120596 on current activated by Br-IQ17B", "setting": "[1]", "result": "significantly enhanced"}, {"measurement": "Effect of PNU-120596 on current evoked by low concentration of ACh", "setting": "[1]; PNU-120596 1 μmol/L, ACh 10 μmol/L", "result": "robustly increased"}]}
{"smiles": "O=C(N[C@H]1CN2CCC1CC2)c1cc2cccc(Cl)c2s1", "note": "[EVP-6124]", "values": [{"measurement": "EC50", "setting": "human α7 nAChR [4]", "result": "0.45 ± 0.08", "unit": "µM"}, {"measurement": "Concentration needed to reach 30% of the response of ACh", "setting": "human α7 nAChR [4]", "result": 3, "unit": "µmol/L"}, {"measurement": "Maximal response vs 3 mmol/L ACh", "setting": "human α7 nAChR [4]", "result": "30.6%±1.8%"}]}
{"smiles": "O=C(N[C@H]1CN2CCC1CC2)c1cc2cccc(Br)n2c1", "note": "[Br-IQ17B, N-[(3R)-1-azabicyclo[2,2,2]oct-3-yl]-5-bromoindolizine-2-carboxamide]", "values": [{"measurement": "sIPSC frequency with co-application of PNU-120596 and Br-IQ17B", "setting": "[2]; Br-IQ17B 10 μmol/L + PNU-120596 1 μmol/L, 1–5 min, from 4.6±0.7 Hz", "result": "7.8±0.7", "unit": "Hz"}, {"measurement": "Increase of IPSC peak amplitudes of individual neurons", "setting": "[2]; Br-IQ17B 10 μmol/L + PNU-120596 1 μmol/L, 5 out of 6 neurons, vs control or PNU120596 alone", "result": "1.3 to 4.9", "unit": "times"}, {"measurement": "IPSC amplitude in the one neuron out of six without amplitude change", "setting": "[2]; co-application of Br-IQ17B and PNU-120596, vs 25.3±1.4 pA", "result": "25.9±1.2", "unit": "pA"}, {"measurement": "Hill coefficient in the presence of PNU-120596", "setting": "human α7 nAChR [4]; co-applied with 1 μmol/L PNU-120596", "result": "2.4±0.1"}, {"measurement": "Hill coefficient, activation of α7 current", "setting": "human α7 nAChR [4]; compound alone", "result": "1.2±0.1"}, {"measurement": "Concentration needed to reach 30% of the response of ACh", "setting": "human α7 nAChR [4]", "result": 1.5, "unit": "µmol/L"}, {"measurement": "Maximal response vs 3 mmol/L ACh", "setting": "human α7 nAChR [4]", "result": "64.3%±3.6%"}, {"measurement": "IC50", "setting": "human α7 nAChR [5]", "result": "0.0285 ± 0.0025", "unit": "µM"}, {"measurement": "Effect of low concentration on ACh-mediated peak current", "setting": "human α7 nAChR [5]; 3 nmol/L Br-IQ17B, 100 μmol/L ACh", "result": "increased the ACh-mediated peak current"}, {"measurement": "Hill coefficient, inhibition of ACh-evoked α7 current", "setting": "human α7 nAChR [5]; 1-min sustained exposure, then 100 μmol/L ACh", "result": "2.8±0.3"}, {"measurement": "Allosteric modulation of GABAA α1β3γ2", "setting": "[6]; [12]", "result": "no allosteric modulation"}, {"measurement": "Effect on GABAA α1β3γ2", "setting": "[6]; [13]", "result": "no observable effects"}, {"measurement": "EC50", "setting": "rat α3β4 nAChR", "result": "> 100", "unit": "µM"}, {"measurement": "Agonist activity on α3β4", "setting": "rat α3β4 nAChR; [14]", "result": "did not induce any current; also recorded: no detectable agonist activity"}, {"measurement": "IC50", "setting": "rat α3β4 nAChR; IC50, inhibition of ACh-evoked α3β4 current, co-applied with 300 μmol/L ACh", "result": "~382 µM and 382 µM and ~381 µM"}, {"measurement": "Hill coefficient, inhibition of α3β4", "setting": "rat α3β4 nAChR; co-applied with 300 μmol/L ACh", "result": "0.9±0.1"}, {"measurement": "Maximum effect vs 3 mmol/L ACh or 10 μmol/L 5-HT", "setting": "rat α3β4 nAChR; α3β4, Rat", "result": 0}, {"measurement": "Allosteric modulation of GABAA α2β3γ2", "setting": "[7]; [12]", "result": "no allosteric modulation"}, {"measurement": "Effect on GABAA α2β3γ2", "setting": "[7]; [13]", "result": "no observable effects"}, {"measurement": "EC50", "setting": "human 5-HT3A receptor", "result": "> 100", "unit": "µM"}, {"measurement": "Maximum effect vs 3 mmol/L ACh or 10 μmol/L 5-HT", "setting": "human 5-HT3A receptor; 5-HT3A, Human", "result": 0}, {"measurement": "Agonist activity on 5-HT3A", "setting": "human 5-HT3A receptor; Br-IQ17B alone, 0.1–100 μmol/L", "result": "did not show any agonist activities"}, {"measurement": "Hill coefficient, inhibition of 5-HT3A", "setting": "human 5-HT3A receptor; co-applied with 10 μmol/L 5-HT", "result": "2.1±0.1"}, {"measurement": "EC50", "setting": "rat α4β2 nAChR", "result": "> 100", "unit": "µM"}, {"measurement": "IC50", "setting": "rat α4β2 nAChR", "result": "> 100", "unit": "µM"}, {"measurement": "Agonist activity on α4β2", "setting": "rat α4β2 nAChR; [14]", "result": "did not induce any current; also recorded: no detectable agonist activity"}, {"measurement": "Effect on ACh-evoked α4β2 current", "setting": "rat α4β2 nAChR; pre-incubation 1 min or co-application with ACh", "result": "no enhancement or inhibition"}, {"measurement": "Maximum effect vs 3 mmol/L ACh or 10 μmol/L 5-HT", "setting": "rat α4β2 nAChR; α4β2, Rat", "result": 0}, {"measurement": "Allosteric modulation of GABAA α5β3γ2", "setting": "[8]; [12]", "result": "no allosteric modulation"}, {"measurement": "Effect on GABAA α5β3γ2", "setting": "[8]; [13]", "result": "no observable effects"}, {"measurement": "Allosteric modulation of GABAA α3β3γ2", "setting": "[9]; [12]", "result": "no allosteric modulation"}, {"measurement": "Effect on GABAA α3β3γ2", "setting": "[9]; [13]", "result": "no observable effects"}, {"measurement": "Ki", "setting": "α7 nAChR [10]", "result": "0.0149 ± 0.0032", "unit": "µM"}, {"measurement": "Current evoked in hippocampal neurons", "setting": "[1]", "result": "evoked α7 currents with fast onset and rapid decay"}, {"measurement": "Fold more potent than ACh in [3H]-MLA displacement", "setting": "α7 nAChR [11]", "result": "approximately 300 fold"}]}
{"smiles": "CCN1C[C@]2(COC(=O)c3ccccc3N3C(=O)C[C@H](C)C3=O)CC[C@H](OC)[C@@]34[C@@H]5C[C@H]6[C@H](OC)[C@@H]5[C@](O)(C[C@@H]6OC)[C@@](O)([C@@H](OC)[C@H]23)[C@@H]14", "note": "[MLA, methyllycaconitine]", "values": [{"measurement": "Effect of MLA on α7 current evoked by Br-IQ17B", "setting": "human α7 nAChR [4]; 10 nmol/L MLA, 30 μmol/L Br-IQ17B", "result": "inhibited; also recorded: completely blocked"}, {"measurement": "Effect of MLA on Br-IQ17B-evoked native α7 current", "setting": "[1]", "result": "completely blocked"}]}
